target: human sigma 1 receptor (Homo sapiens (Human), UniProt Q99720); test: Human Sigma 1 Receptor Radioligand Assay; assay type: binding; details: transfected HEK-293 membranes, 5 nM [3H](+)-pentazocine as radioligand, 37° C., 120 minutes
Protocol: Human Sigma 1 Receptor Radioligand Assay
To investigate binding properties of sigma 1 receptor ligands to human sigma 1 receptor, transfected HEK-293 membranes and [^3H](+)-pentazocine (Perkin Elmer, NET-1056), as the radioligand, were used. The assay was carried out with 7 μg of membrane suspension, 5 nM of [^3H](+)-pentazocine in either absence or presence of either buffer or 10 μM Haloperidol for total and non-specific binding, respectively. Binding buffer contained Tris-HCl 50 mM at pH 8. Plates were incubated at 37° C. for 120 minutes. After the incubation period, the reaction mix was then transferred to MultiScreen HTS, FC plates (Millipore), filtered and plates were washed 3 times with ice-cold 10 mM TrisHCL (pH7.4). Filters were dried and counted at approximately 40% efficiency in a MicroBeta scintillation counter (Perkin-Elmer) using EcoScint liquid scintillation cocktail.

Sequence of human sigma 1 receptor (Q99720 whole entry): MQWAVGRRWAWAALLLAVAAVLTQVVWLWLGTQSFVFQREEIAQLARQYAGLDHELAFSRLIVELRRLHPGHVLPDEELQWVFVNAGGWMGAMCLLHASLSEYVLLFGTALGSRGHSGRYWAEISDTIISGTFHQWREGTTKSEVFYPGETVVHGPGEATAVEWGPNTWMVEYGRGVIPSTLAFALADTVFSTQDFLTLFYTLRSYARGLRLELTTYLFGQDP

Row | Structure (SMILES) | Ki [nM]
1 | C[C@H](CC(=O)N1CCn2c(cc3ccccc32)C1)N1CCN(C)CC1 [Example 50, (R)-1-(3,4-dihydropyrazino[1,2-a]indol-2(1H)-yl)-3-(4-methylpiperazin-1-yl)butan-1-one] | 251
2 | C[C@@H](C(=O)N1CCN2c3ccccc3C[C@@H]2C1)N1CCN(C2CCCCC2)CC1 [Example 52, (S)-2-(4-cyclohexylpiperazin-1-yl)-1-((R)-3,4,10,10a-tetrahydropyrazino[1,2-a]indol-2(1H)-yl)propan-1-one] | 142
3 | C[C@@H](C(=O)N1CCN2c3ccccc3C[C@H]2C1)N1CCN(C2CCCCC2)CC1 [Example 53, (S)-2-(4-cyclohexylpiperazin-1-yl)-1-((S)-3,4,10,10a-tetrahydropyrazino[1,2-a]indol-2(1H)-yl)propan-1-one] | 94.7

Now those with a lower Ki, led by results:

Row | Ki [nM] | Structure (SMILES)
4 | 91.7 | C[C@@H](CC(=O)N1CCn2c(cc3ccccc32)C1)N1CCN(C)CC1 [Example 49, (S)-1-(3,4-dihydropyrazino[1,2-a]indol-2(1H)-yl)-3-(4-methylpiperazin-1-yl)butan-1-one]
5 | 59.9 | C[C@H](C(=O)N1CCN2c3ccccc3C[C@H]2C1)N1CCN(C2CCCCC2)CC1 [Example 51, (R)-2-(4-cyclohexylpiperazin-1-yl)-1-((S)-3,4,10,10a-tetrahydropyrazino[1,2-a]indol-2(1H)-yl)propan-1-one]
6 | 71.6 | C[C@H](C(=O)N1CCN2c3ccccc3C[C@@H]2C1)N1CCN(C2CCCCC2)CC1 [Example 54, (R)-2-(4-cyclohexylpiperazin-1-yl)-1-((R)-3,4,10,10a-tetrahydropyrazino[1,2-a]indol-2(1H)-yl)propan-1-one]

Source: patent US9963453B2, “Substituted pyrazino[1,2-a]indoles as sigma receptor activity modulators” (LABORATORIOS DEL DR. ESTEVE S.A., priority 2013, dated 2018)
